Source: PubChem BioAssay AID220 (DTP/NCI, 2004)
“And” between values parts separate entries of the source, which are not always exact repeats. Equal values may be shown once. Records with an inconclusive call do not appear.

Tested on: CD8F1 mice, subcutaneous mammary adenocarcinoma, T/C%
Assay: NCI In Vivo Anticancer Drug Screen. Data for tumor model Mammary Adenocarcinoma CD8F1 (subcutaneous) in CD8F1
Details: higher = larger tumour
Method in brief: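 Ratio of treated to vehicle-control outcome, based on either survival or tumor size, in mice bearing transplantable tumors given the test compound.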

[1] = endpoint: median tumor weight change, dose: 250.0 mg/kg/injection, schedule: Q01DX001 (ip), vehicle: Klucel (hydroxypropylcellulose) (HPC)
[2] = endpoint: median tumor weight change, dose: 500.0 mg/kg/injection, schedule: Q01DX001 (ip), vehicle: Klucel (hydroxypropylcellulose) (HPC)
[3] = endpoint: median tumor weight change, dose: 500.0 mg/kg/injection, schedule: Q01DX001 (ip), vehicle: saline with Tween-80
[4] = endpoint: median tumor weight change, dose: 1000.0 mg/kg/injection, schedule: Q01DX001 (ip), vehicle: saline with Tween-80
[5] = endpoint: median tumor weight (est.), dose: 25.0 mg/kg/injection, schedule: Q07DX005 (ip), vehicle: saline with Tween-80
[6] = endpoint: median tumor weight (est.), dose: 50.0 mg/kg/injection, schedule: Q07DX005 (ip), vehicle: saline with Tween-80
[7] = endpoint: median tumor weight (est.), dose: 100.0 mg/kg/injection, schedule: Q07DX005 (ip), vehicle: saline with Tween-80
[8] = endpoint: median tumor weight (est.), dose: 200.0 mg/kg/injection, schedule: Q07DX005 (ip), vehicle: saline with Tween-80
[9] = endpoint: median tumor weight change, dose: 1000.0 mg/kg/injection, schedule: Q01DX001 (ip), vehicle: Klucel (hydroxypropylcellulose) (HPC)
[10] = endpoint: median tumor weight change, dose: 2000.0 mg/kg/injection, schedule: Q01DX001 (ip), vehicle: Klucel (hydroxypropylcellulose) (HPC)
[11] = endpoint: median tumor weight (est.), dose: 25.0 mg/kg/injection, schedule: Q07DX005 (ip), vehicle: Klucel (hydroxypropylcellulose) (HPC)
[12] = endpoint: median tumor weight (est.), dose: 50.0 mg/kg/injection, schedule: Q07DX005 (ip), vehicle: Klucel (hydroxypropylcellulose) (HPC)
[13] = endpoint: median tumor weight (est.), dose: 200.0 mg/kg/injection, schedule: Q07DX005 (ip), vehicle: Klucel (hydroxypropylcellulose) (HPC)
[14] = endpoint: median tumor weight (est.), dose: 12.5 mg/kg/injection, schedule: Q07DX005 (ip), vehicle: saline with Tween-80

`CCC(=O)N(C)[C@@H](C)C(=O)O[C@H]1CC(=O)N(C)c2cc(cc(OC)c2Cl)C/C(C)=C/C=C[C@@H](OC)[C@@]2(O)C[C@H](OC(=O)N2)[C@@H](C)[C@@H]2O[C@@]12C` was tested, and the T/C (endpoint: median tumor weight (est.), dose: 7.5 micrograms/kg/injection, schedule: Q07DX005 (ip), vehicle: saline + alcohol) was 210 % of control, the T/C (endpoint: median tumor weight (est.), dose: 15.0 micrograms/kg/injection, schedule: Q07DX005 (ip), vehicle: saline + alcohol) was 112 % of control and the T/C (endpoint: median tumor weight (est.), dose: 30.0 micrograms/kg/injection, schedule: Q07DX005 (ip), vehicle: saline + alcohol) was 84 % of control. For the same molecule, the T/C (endpoint: median tumor weight (est.), dose: 60.0 micrograms/kg/injection, schedule: Q07DX005 (ip), vehicle: saline + alcohol) was 98 % of control.

For `COc1cc(C(C)(C)C)cc(OC)c1C(O)(c1c(OC)cc(C(C)(C)C)cc1OC)c1c(OC)cc(C(C)(C)C)cc1OC`, the T/C (endpoint: median tumor weight change, dose: 62.5 mg/kg/injection, schedule: Q01DX001 (ip), vehicle: saline with Tween-80) was 102 % of control, the T/C (endpoint: median tumor weight change, dose: 125.0 mg/kg/injection, schedule: Q01DX001 (ip), vehicle: Klucel (hydroxypropylcellulose) (HPC)) was 98 % of control and the T/C [1] was 62 % of control. The T/C (endpoint: median tumor weight change, dose: 250.0 mg/kg/injection, schedule: Q01DX001 (ip), vehicle: saline with Tween-80) was 48 % of control and 70 % of control, the T/C [2] was 67 % of control and the T/C [3] was 37 % of control and 46 % of control. The T/C [4] was 17 % of control.

For `CCOC(=O)C1=C(C#N)C2(CCC(OCc3ccccc3)CC2)C(=O)O1` (stereo not drawn), the T/C (endpoint: median tumor weight change, dose: 125.0 mg/kg/injection, schedule: Q01DX001 (ip), vehicle: suspension in saline) was 66 % of control, the T/C (endpoint: median tumor weight change, dose: 250.0 mg/kg/injection, schedule: Q01DX001 (ip), vehicle: suspension in saline) was 63 % of control and the T/C (endpoint: median tumor weight change, dose: 500.0 mg/kg/injection, schedule: Q01DX001 (ip), vehicle: suspension in saline) was 50 % of control. The T/C (endpoint: median tumor weight change, dose: 1000.0 mg/kg/injection, schedule: Q01DX001 (ip), vehicle: suspension in saline) was 24 % of control.

`CCOC(C)C(/C=N/NC(N)=S)=NNC(N)=S` (stereo not drawn) was tested, and the T/C [5] was 87 % of control and 109 % of control, the T/C [6] was 85 % of control and 88 % of control and the T/C [7] was 78 % of control and 96 % of control.

With `OCC1OC(n2cnc3c(=S)nc[nH]c32)C(O)C1O` (stereo not drawn) the T/C [6] was 23 % of control, the T/C [7] was 34 % of control and the T/C [8] was 13 % of control and 37 % of control. The T/C (endpoint: median tumor weight (est.), dose: 400.0 mg/kg/injection, schedule: Q07DX005 (ip), vehicle: saline with Tween-80) was 8 % of control and 15 % of control, the T/C (endpoint: median tumor weight change, dose: 25.0 mg/kg/injection, schedule: Q01DX001 (ip), vehicle: saline with Tween-80) was 73 % of control and the T/C (endpoint: median tumor weight change, dose: 50.0 mg/kg/injection, schedule: Q01DX001 (ip), vehicle: saline with Tween-80) was 71 % of control. For the same molecule, the T/C (endpoint: median tumor weight change, dose: 100.0 mg/kg/injection, schedule: Q01DX001 (ip), vehicle: saline with Tween-80) was 78 % of control, the T/C (endpoint: median tumor weight change, dose: 125.0 mg/kg/injection, schedule: Q01DX001 (ip), vehicle: saline) was 78 % of control and the T/C (endpoint: median tumor weight change, dose: 200.0 mg/kg/injection, schedule: Q01DX001 (ip), vehicle: saline with Tween-80) was 56 % of control. For the same molecule, the T/C [1] was 89 % of control, the T/C (endpoint: median tumor weight change, dose: 250.0 mg/kg/injection, schedule: Q01DX001 (ip), vehicle: saline) was 72 % of control and the T/C (endpoint: median tumor weight change, dose: 400.0 mg/kg/injection, schedule: Q01DX001 (ip), vehicle: saline with Tween-80) was 60 % of control. For the same molecule, the T/C [2] was 79 % of control, the T/C (endpoint: median tumor weight change, dose: 500.0 mg/kg/injection, schedule: Q01DX001 (ip), vehicle: saline) was 97 % of control and the T/C [9] was 52 % of control. For the same molecule, the T/C (endpoint: median tumor weight change, dose: 1000.0 mg/kg/injection, schedule: Q01DX001 (ip), vehicle: saline) was 53 % of control, the T/C [10] was 26 % of control and the T/C (endpoint: median tumor weight change, dose: 2000.0 mg/kg/injection, schedule: Q01DX001 (ip), vehicle: saline) was 67 % of control.

With `CC1=NNC(=O)C1CCO` (stereo not drawn) the T/C (endpoint: median tumor weight change, dose: 450.0 mg/kg/injection, schedule: Q01DX001 (ip), vehicle: Klucel (hydroxypropylcellulose) (HPC)) was 102 % of control, the T/C (endpoint: median tumor weight change, dose: 900.0 mg/kg/injection, schedule: Q01DX001 (ip), vehicle: Klucel (hydroxypropylcellulose) (HPC)) was 157 % of control and the T/C (endpoint: median tumor weight change, dose: 1800.0 mg/kg/injection, schedule: Q01DX001 (ip), vehicle: Klucel (hydroxypropylcellulose) (HPC)) was 189 % of control. For the same molecule, the T/C (endpoint: median tumor weight change, dose: 3600.0 mg/kg/injection, schedule: Q01DX001 (ip), vehicle: Klucel (hydroxypropylcellulose) (HPC)) was 80 % of control.

In the case of `C[C@]12CCC(=O)C=C1CC[C@@H]1[C@@H]2C(=O)C[C@@]2(C)[C@H]1CC[C@]2(O)C(=O)CO`, the T/C (endpoint: median tumor weight (est.), dose: 2.0 mg/kg/injection, schedule: Q07DX005 (ip), vehicle: Klucel (hydroxypropylcellulose) (HPC)) is reported as 68 % of control, the T/C (endpoint: median tumor weight (est.), dose: 4.0 mg/kg/injection, schedule: Q07DX005 (ip), vehicle: Klucel (hydroxypropylcellulose) (HPC)) is reported as 91 % of control and the T/C (endpoint: median tumor weight (est.), dose: 8.0 mg/kg/injection, schedule: Q07DX005 (ip), vehicle: Klucel (hydroxypropylcellulose) (HPC)) is reported as 97 % of control. The T/C (endpoint: median tumor weight (est.), dose: 16.0 mg/kg/injection, schedule: Q07DX005 (ip), vehicle: Klucel (hydroxypropylcellulose) (HPC)) was 71 % of control, the T/C [11] was 80 % of control and the T/C [12] was 67 % of control. For the same molecule, the T/C [13] was 35 % of control and 58 % of control, the T/C [2] was 46 % of control and 64 % of control and the T/C [9] was 33 % of control and 49 % of control. For the same molecule, the T/C [10] was 24 % of control and 44 % of control and the T/C (endpoint: median tumor weight change, dose: 4000.0 mg/kg/injection, schedule: Q01DX001 (ip), vehicle: Klucel (hydroxypropylcellulose) (HPC)) was -18 % of control.

`Cc1oc2c(C)c3oc(=O)cc(C)c3cc2c1CCl` was tested, and the T/C (endpoint: median tumor weight change, dose: 15.62 mg/kg/injection, schedule: Q01DX001 (ip), vehicle: saline with Tween-80) was 60 % of control, the T/C (endpoint: median tumor weight change, dose: 31.25 mg/kg/injection, schedule: Q01DX001 (ip), vehicle: saline with Tween-80) was 68 % of control and the T/C [4] was 42 % of control.

`CN(C)c1ccc2c(N(C)C)cc(N(C)C)nc2c1` was tested, and the T/C (endpoint: median tumor weight (est.), dose: 3.12 mg/kg/injection, schedule: Q07DX005 (ip), vehicle: Klucel (hydroxypropylcellulose) (HPC)) was 58 % of control and the T/C (endpoint: median tumor weight (est.), dose: 6.25 mg/kg/injection, schedule: Q07DX005 (ip), vehicle: Klucel (hydroxypropylcellulose) (HPC)) was 78 % of control.

With `Nc1c(C(=O)O)[nH]c(=O)[nH]c1=O` the T/C [14] was 83 % of control.

In the case of `BrC1c2cccc3cccc(c23)C1Br` (stereo not drawn), the T/C [14] is reported as 113 % of control, the T/C [5] is reported as 88 % of control and the T/C [6] is reported as 111 % of control. The T/C [7] was 117 % of control and the T/C [8] was 85 % of control.

For `COC1C(CO)OC(n2cnc3c(=S)nc(N)[nH]c32)C1O` (stereo not drawn), the T/C (endpoint: median tumor weight (est.), dose: 12.5 mg/kg/injection, schedule: Q07DX005 (ip), vehicle: Klucel (hydroxypropylcellulose) (HPC)) was 109 % of control, the T/C [11] was 116 % of control and the T/C [12] was 112 % of control. For the same molecule, the T/C (endpoint: median tumor weight (est.), dose: 100.0 mg/kg/injection, schedule: Q07DX005 (ip), vehicle: Klucel (hydroxypropylcellulose) (HPC)) was 79 % of control, the T/C [13] was 28 % of control and the T/C (endpoint: median tumor weight (est.), dose: 400.0 mg/kg/injection, schedule: Q07DX005 (ip), vehicle: Klucel (hydroxypropylcellulose) (HPC)) was 22 % of control.

With `Cc1[nH]c(=O)[nH]c(=O)c1N(CCF)CCCl` the T/C (endpoint: median tumor weight (est.), dose: 2.5 mg/kg/injection, schedule: Q07DX005 (ip), vehicle: Klucel (hydroxypropylcellulose) (HPC)) was 113 % of control, the T/C (endpoint: median tumor weight (est.), dose: 5.0 mg/kg/injection, schedule: Q07DX005 (ip), vehicle: Klucel (hydroxypropylcellulose) (HPC)) was 97 % of control and the T/C (endpoint: median tumor weight (est.), dose: 10.0 mg/kg/injection, schedule: Q07DX005 (ip), vehicle: Klucel (hydroxypropylcellulose) (HPC)) was 79 % of control. For the same molecule, the T/C (endpoint: median tumor weight (est.), dose: 20.0 mg/kg/injection, schedule: Q07DX005 (ip), vehicle: Klucel (hydroxypropylcellulose) (HPC)) was 63 % of control and the T/C (endpoint: median tumor weight change, dose: 100.0 mg/kg/injection, schedule: Q01DX001 (ip), vehicle: Klucel (hydroxypropylcellulose) (HPC)) was 68 % of control.

With `COc1ccc(C(=O)c2no[n+]([O-])c2C(=O)c2ccc(OC)cc2)cc1` the T/C [3] was 84 % of control.

`O=c1c(O)c(-c2ccc(O)c(O)c2)oc2cc(O)cc(O)c12` was tested, and the T/C (endpoint: median tumor weight (est.), dose: 25.0 mg/kg/injection, schedule: Q07DX005 (ip), vehicle: other) was 52 % of control, the T/C (endpoint: median tumor weight (est.), dose: 50.0 mg/kg/injection, schedule: Q07DX005 (ip), vehicle: other) was 114 % of control and the T/C (endpoint: median tumor weight (est.), dose: 100.0 mg/kg/injection, schedule: Q07DX005 (ip), vehicle: other) was 98 % of control. For the same molecule, the T/C (endpoint: median tumor weight (est.), dose: 400.0 mg/kg/injection, schedule: Q07DX005 (ip), vehicle: other) was 49 % of control.
